We go through 11 compounds from ChEMBL document CHEMBL1201862, “PubChem BioAssay data set” (2004).

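96-well plates; 48 h exposure; 5 concentrations. Endpoints by linear interpolation between flanking doses. Not reached: highest tested concentration assigned. At the GI50, growth is halved.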 Activity calls are given as the source filed them. Rule as the data show it: active = GI50 up to about 1.1 µM and inactive = higher.

Some test systems named below: SK-OV-3; LOX IMVI; OVCAR-8; SF-268; UACC-257; OVCAR-5; SW-620; A549; KM12; RPMI-8226; MDA-N; OVCAR-3; HT-29; HOP-62; U-251; SNB-19; SK-MEL-2; NCI-H522; OVCAR-4; RXF 393.
What all share (assay): growth of human tumour cells (NCI), 48 h

Consider `OCC1OC(OCC(O)C(O)C(O)C(/C=N/Nc2ccccc2)=N/Nc2ccccc2)C(O)C(O)C1O` (configuration not stated), for which the GI50 with SK-OV-3 was > 100 µM (inactive); with LOX IMVI, 13.2 µM (inactive); in the assay on OVCAR-8, > 100 µM (inactive); with SF-268, 26 µM (inactive); with UACC-257, > 100 µM (inactive); in the assay on OVCAR-5, > 100 µM (inactive). Moreover, the GI50 with SW-620, in the assay on A549, with KM12, in the assay with RPMI-8226, in the assay on MDA-N and in the assay with OVCAR-3 was > 100 µM (inactive) in each case. The GI50 with HT-29, in the assay with HOP-62, in the assay on U-251 and in the assay on SNB-19 was > 100 µM (inactive) each time.

Turning to `NCC#CCNCCCN1CC1`, the GI50 in the assay with SK-OV-3, with LOX IMVI, in the assay with OVCAR-8, in the assay with SF-268, in the assay with UACC-257 and in the assay on SK-MEL-2 was > 100 µM (inactive) each time. Also, the GI50 in the assay with OVCAR-5 is > 100 µM (inactive); with SW-620, > 100 µM (inactive); in the assay with A549 it was > 100 µM (inactive); in the assay on KM12, > 100 µM (inactive); in the assay on RPMI-8226, 6.11 µM (inactive); in the assay on MDA-N it was > 100 µM (inactive). In addition, the GI50 in the assay with NCI-H522, in the assay with OVCAR-4, in the assay with OVCAR-3, with HT-29, in the assay with HOP-62 and with U-251 was > 100 µM (inactive) throughout. The GI50 in the assay with SNB-19 is > 100 µM (inactive).

For `COc1ccc(C(c2ccccc2)N2C(=O)CCC2C(=O)O)cc1OC` (configuration not stated), the GI50 with SK-OV-3, in the assay with LOX IMVI, with OVCAR-8, in the assay on SF-268, in the assay with UACC-257 and with SK-MEL-2 was > 100 µM (inactive) in each case. For the same compound, the GI50 in the assay with OVCAR-5, with SW-620, in the assay with A549, with KM12, in the assay with RPMI-8226 and with MDA-N was > 100 µM (inactive) each time. The GI50 with NCI-H522, in the assay with OVCAR-4, with OVCAR-3, in the assay with HT-29, in the assay on HOP-62 and in the assay with U-251 was > 100 µM (inactive) in each case. The GI50 in the assay on SNB-19 was > 100 µM (inactive).

As to `O=[N+]([O-])/C(C(Cl)=C(Cl)Cl)=C(\N1CCOCC1)n1nnc2ccccc21`, the GI50 in the assay on SK-OV-3 was 27.2 µM (inactive); in the assay on SF-268, 18.3 µM (inactive); in the assay with UACC-257, 20.7 µM (inactive); with SK-MEL-2, 22.2 µM (inactive); with OVCAR-5 it was 21.1 µM (inactive); in the assay with A549, 16.7 µM (inactive). Besides, the GI50 in the assay with KM12 is 20.2 µM (inactive); with RPMI-8226 it was 52.6 µM (inactive); with MDA-N, 19.6 µM (inactive); in the assay on NCI-H522 it was 16 µM (inactive); with OVCAR-4 it was 27.2 µM (inactive); in the assay on OVCAR-3, 19.8 µM (inactive). In addition, the values for the GI50 in the assay with HOP-62, with U-251 and with SNB-19 were 18.8 µM (inactive), 16.7 µM (inactive) and 14.3 µM (inactive), respectively.

`CC(C(=O)O)C1Nc2ccccc2NC1=O` (configuration not stated): the GI50 with SK-OV-3, in the assay on LOX IMVI, with OVCAR-8, in the assay on SF-268, with UACC-257 and in the assay with SK-MEL-2 was > 100 µM (inactive) throughout. The GI50 in the assay with OVCAR-5 was > 100 µM (inactive); in the assay on SW-620, > 100 µM (inactive); in the assay with A549, > 100 µM (inactive); in the assay with KM12 it was > 100 µM (inactive); in the assay with RPMI-8226, 37.4 µM (inactive); in the assay on MDA-N, > 100 µM (inactive). Also, the GI50 in the assay on OVCAR-4, with OVCAR-3, in the assay on HT-29, with RXF 393, in the assay with U-251 and in the assay with SNB-19 was > 100 µM (inactive) in each case.

For `[O-]c1c[n+](-c2ccccc2)no1`, the GI50 with SK-OV-3, in the assay with LOX IMVI, in the assay with SF-268, in the assay on UACC-257, in the assay with SK-MEL-2 and with OVCAR-5 was > 100 µM (inactive) throughout. The GI50 in the assay with SW-620, in the assay on A549, in the assay with KM12, with RPMI-8226, in the assay on MDA-N and in the assay on OVCAR-4 was > 100 µM (inactive) each time. Moreover, the GI50 with OVCAR-3, in the assay with HT-29, in the assay on RXF 393, in the assay on HOP-62, in the assay with U-251 and in the assay on SNB-19 was > 100 µM (inactive) each time.

For `CC(=O)NC(CCCNC(=O)OCc1ccccc1)C(=O)O` (configuration not stated), the GI50 in the assay on SK-OV-3, in the assay with LOX IMVI, in the assay on OVCAR-8, with SF-268, with UACC-257 and in the assay on SK-MEL-2 was > 100 µM (inactive) throughout. Further, the GI50 with OVCAR-5, with SW-620, in the assay with A549, with KM12, in the assay with RPMI-8226 and with NCI-H522 was > 100 µM (inactive) in each case. The GI50 is 36.1 µM (inactive) in the assay with OVCAR-4; > 100 µM (inactive) in the assay with OVCAR-3; > 100 µM (inactive) in the assay on HT-29; > 100 µM (inactive) with RXF 393; > 100 µM (inactive) in the assay on HOP-62; > 100 µM (inactive) in the assay on U-251. The GI50 in the assay with SNB-19 was > 100 µM (inactive).

`O=C1c2cccnc2S(=O)(=O)N1c1ccc([N+](=O)[O-])cc1`: the GI50 with SK-OV-3, with LOX IMVI, in the assay on OVCAR-8, in the assay on SF-268, in the assay on UACC-257 and in the assay with SK-MEL-2 was > 100 µM (inactive) in each case. In addition, the GI50 with OVCAR-5 is > 100 µM (inactive); in the assay with SW-620, > 100 µM (inactive); in the assay with A549, > 100 µM (inactive); with KM12, > 100 µM (inactive); in the assay on RPMI-8226, 57 µM (inactive); with MDA-N it was > 100 µM (inactive). Besides, the GI50 is 24.9 µM (inactive) in the assay on NCI-H522; > 100 µM (inactive) in the assay on OVCAR-4; > 100 µM (inactive) in the assay on OVCAR-3; > 100 µM (inactive) with HT-29; > 100 µM (inactive) in the assay with HOP-62; > 100 µM (inactive) in the assay with U-251. Further, the GI50 in the assay with SNB-19 is > 100 µM (inactive).

Consider `O=C1CC(Cl)c2c(Cl)sc(Cl)c21` (configuration not stated), for which the GI50 in the assay with SK-OV-3 is 18.6 µM (inactive); in the assay with LOX IMVI, 1.66 µM (inactive); in the assay on OVCAR-8 it was 1.8 µM (inactive); in the assay with SF-268, 1.79 µM (inactive); in the assay on UACC-257 it was 2.96 µM (inactive); with OVCAR-5, 16.2 µM (inactive). The GI50 in the assay with SW-620 is 1.75 µM (inactive); with A549, 3.56 µM (inactive); with KM12 it was 1.67 µM (inactive); with RPMI-8226, 0.155 µM (active); with MDA-N, 2.32 µM (inactive); in the assay with NCI-H522, 1.21 µM (inactive). For the same compound, the GI50 in the assay on OVCAR-4 is 4.57 µM (inactive); with OVCAR-3, 2.31 µM (inactive); in the assay on HT-29 it was 2.23 µM (inactive); in the assay with HOP-62, 6 µM (inactive); in the assay on SNB-19 it was 11.4 µM (inactive).

On to `O=C(O)CSC(CC(=O)c1ccc(Cl)cc1)c1ccc(Cl)cc1` (configuration not stated), for which the GI50 is 36.5 µM (inactive) with SK-OV-3; 17.3 µM (inactive) in the assay with LOX IMVI; 22.3 µM (inactive) with OVCAR-8; 25.1 µM (inactive) in the assay with SF-268; 21.2 µM (inactive) in the assay on UACC-257; 50.8 µM (inactive) with SK-MEL-2. The GI50 with OVCAR-5 was > 100 µM (inactive); in the assay on SW-620 it was 4.17 µM (inactive); with A549, 38.4 µM (inactive); with KM12, 8.07 µM (inactive); with RPMI-8226, 6.95 µM (inactive); in the assay with MDA-N, 20.6 µM (inactive). Also, the GI50 in the assay with NCI-H522 was 14.7 µM (inactive); with OVCAR-4, 27.4 µM (inactive); in the assay with OVCAR-3, 20.7 µM (inactive); in the assay on HT-29, 22.1 µM (inactive); with HOP-62, 32.9 µM (inactive); in the assay with U-251 it was 29 µM (inactive). For the same compound, the GI50 in the assay with SNB-19 was 42 µM (inactive).

As for `COc1nc(N)c(C#N)c(C#N)c1C#N`, the GI50 in the assay on SK-OV-3, in the assay with LOX IMVI, in the assay with OVCAR-8, in the assay with SF-268, in the assay with UACC-257 and in the assay on OVCAR-5 was > 10 µM (inactive) in each case. The GI50 in the assay on SW-620, with A549, in the assay on KM12, in the assay on RPMI-8226, in the assay on MDA-N and in the assay with NCI-H522 was > 10 µM (inactive) each time. The GI50 with OVCAR-4, in the assay on OVCAR-3, in the assay on HT-29, in the assay on HOP-62, with U-251 and in the assay with SNB-19 was > 10 µM (inactive) throughout.
